Laboratory results published in publication PMC7870075, “Physicochemical properties and formulation development of a novel compound inhibiting Staphylococcus aureus biofilm formation” (PLoS ONE, 2021).
In brackets after ≈: the same amount, converted by molar mass. Several values for one entry are separate records, joined by “and”; a condition that tells them apart may be missing. Equal values may be shown once.

What was measured:
[1] = tested on: S. aureus NRS384 strain; assay: Biofilm assay (96-well microtiter plate, crystal violet staining); format: cell-based, Staphylococcus aureus; conditions: for Inhibition of biofilm formation (vs treated with DMSO %): NRS384, single replicates
Experimental: Methicillin-resistant Staphylococcus aureus (MRSA) USA300 strain NRS384 (Strain USA300-0114, NR-46070), was provided by the Network on Antimicrobial Resistance in Staphylococcus aureus (NARSA) for distribution by BEI Resources, NIAID, NIH. The NRS384 strain was grown in Todd-Hewitt broth containing 0.2% yeast extract (THY) (Difco, Detroit, MI, USA). The medium for growth of static biofilms was THY with 0.5% glucose. All bacterial cultures were incubated at 37°C.
The biofilm assay was performed using 96-well polystyrene flat-bottom microtiter plate as described previously. Overnight cultures of S. aureus were diluted 1:200 with fresh THY medium containing 0.5% glucose. […] Non-adherent bacteria were washed away by PBS three times. Biofilms attached to microtiter plates were stained by crystal violet solution (Sigma-Aldrich, St. Louis, MO, USA) for 15 min. Excess stain was removed by washing with PBS. The crystal violet attached to biofilm samples was dissolved with ethanol. The absorbance at 595 nm was measured using Spectrostar Nano spectrophotometer (BMG Labtech, Ortenberg, Germany) as the value of biofilm formation. Percentage inhibition of sample treated with CCG-211790 was calculated against the mean of samples treated with DMSO. […] IC50 (the half maximal inhibitory concentration) was estimated.
Statistical analysis of the results was performed using a two-sided Student’s t-test. Dose Response fitting function in Origin was used to calculate the IC50. The IC50 was calculated by plotting the inhibition percentage (y) versus logarithm of dose (x), and fitting the data using the equation y=A1+A2−A1/1+10^(Logx0−x)p . IC50 was calculated as 10^logx0 . A1 stands for bottom asymptote, A2 stands for top asymptote and p is the hill slope (Origin 7.0, OriginLab Corporation, Northampton, MA, USA).

[2] = Solubility in water containing sodium dodecyl sulfate (SDS); format: physicochemical; conditions: aqueous with cosolvent or surfactant or cyclodextrin, thermodynamic from solid, 37°C; for solubility at 24 h / solubility at 48 h: 200 rpm; for solubility: mean of 24 and 48 h
Experimental: The concentration of CCG-211790 in deionized water or aqueous solutions was determined using an Agilent series 1100 HPLC system (Agilent Technologies, Santa Clara, CA, USA) equipped with diode array detector. Sample separation was carried out with a Kinetex C18 column (75 mm × 3 mm, particle size 2.6 μm, Phenomenex Inc., Torrance, CA, USA). The mobile phase of acetonitrile-water (50:50, v/v) was used for chromatographic separation. The flow rate was set to 0.5 mL/min, column temperature to 35°C. The absorption was measured at wavelength 255 nm. The injection volume was 30 μL. The retention time of CCG-211790 was 4.9 min. The method detection limit was 0.02 mg/L. Calibration curves were established giving a correlation coefficient >0.9900. The procedure to determine solubility in water with presence of SDS is based on the Paddle Method as described in the U.S. Pharmacopeia <711> on the in vitro dissolution tests with minor revision. To determine the saturation solubility in water containing SDS, CCG-211790 bulk powder was added in excess (around 5 mg of CCG-211790) to 10 mL of SDS solutions with various concentrations (0.5, 1.0 or 2.0% w/v). After incubation for 24–48 h in a shaking incubator at 37°C and 200 rpm to reach saturation status, aliquot (2 mL) of the incubated sample was filtered through a 0.22 μm Millipore filter (Millipore Corp., Billerica, MA, USA). Solutions passing through the filter were collected (0.5 mL) and were diluted 2-fold with acetonitrile. CCG-211790 concentration in SDS solutions was determined by HPLC analysis.

[3] = Solubility in organic solvents; format: physicochemical; conditions: thermodynamic from solid
Experimental: The concentration of CCG-211790 in organic solvents was carried out on a LabTech BlueStar plus UV-Vis spectrophotometer (Hopkinton, MA, USA) using dimethylformamide (DMF) as a reference solvent. UV-Vis absorption spectra were recorded in a wavelength range from 200–500 nm with samples placed in a quartz cuvette. CCG-211790 concentrations in organic solvents were determined based on the absorption of CCG-211790 at characteristic wavelength of 314 nm. Calibration curves were established giving a correlation coefficient more than 0.999. The solubility of CCG-211790 in organic solvents were also determined. CCG-211790 bulk powder was added in excess to 0.1–1 mL of an organic solvent. After ultrasonication for 30 min and incubation for 24 h at room temperature on a shaking platform to reach the saturation status, sample aliquots (0.5 mL) were centrifuged at 10,400 ×g for 10 min, and 10 μL of supernatant was diluted 500–50,000-fold with dimethylformamide (DMF). The saturation solubility of CCG-211790 in various organic solvents was determined via ultraviolet-visible spectrophotometry (UV-Vis) with DMF as the reference solvent.

[4] = 0.5% (w/v) SDS solution, 0.5% (w/v) SDS
[5] = 1.0% (w/v) SDS solution, 1.0% (w/v) SDS
[6] = 2.0% (w/v) SDS solution, 2.0% (w/v) SDS

- IC50 ([1]; Staphylococcus aureus, MRSA / NRS 384 / USA300, S. aureus NRS384 (MRSA USA300), overnight 37°C, crystal violet, read-out: IC50 of the inhibition of biofilm formation): 1280 ± 450 nM
- solubility at 24 h [2, 4]: 0.0329 mg/mL (≈ 0.0856 mM)
- solubility at 48 h [2, 4]: 0.0268 mg/mL (≈ 0.0697 mM)
- solubility [2, 4]: 0.0299 ± 0.0043 mg/mL (≈ 0.0778 mM)
- solubility at 24 h [2, 5]: 0.0685 mg/mL (≈ 0.178 mM)
- solubility at 48 h [2, 5]: 0.0638 mg/mL (≈ 0.166 mM)
- solubility [2, 5]: 0.0661 ± 0.0033 mg/mL (≈ 0.172 mM)
- solubility at 24 h [2, 6]: 0.161 mg/mL (≈ 0.42 mM)
- solubility at 48 h [2, 6]: 0.15 mg/mL (≈ 0.389 mM)
- solubility [2, 6]: 0.155 ± 0.0083 mg/mL (≈ 0.405 mM)
- solubility at 24 h ([3]; oil or lipid, Canola oil, room temperature, read-out: Solubility): 24.7 mg/mL (≈ 64.3 mM)
- solubility at 24 h ([3]; oil or lipid, Coconut oil, room temperature, read-out: Solubility): 37.2 mg/mL (≈ 96.8 mM)
- solubility at 24 h ([3]; oil or lipid, Oleic acid, room temperature, read-out: Solubility): 24.1 mg/mL (≈ 62.7 mM)
- solubility at 24 h ([3]; oil or lipid, Olive oil, room temperature, read-out: Solubility): 24.3 mg/mL (≈ 63.2 mM)
- solubility at 24 h ([3]; oil or lipid, Peanut oil, room temperature, read-out: Solubility): 22.3 mg/mL (≈ 58 mM)
- solubility at 24 h ([3]; oil or lipid, Safflower oil, room temperature, read-out: Solubility): 22.7 mg/mL (≈ 59 mM)
- solubility at 24 h ([3]; oil or lipid, Sesame oil, room temperature, read-out: Solubility): 22.7 mg/mL (≈ 59 mM)
- solubility at 24 h ([3]; oil or lipid, Sunflower oil, room temperature, read-out: Solubility): 20 mg/mL (≈ 52 mM)
- solubility at 24 h ([3]; oil or lipid, range over the edible oils of Table 2, read-out: solubility in edible oils): 20 to 37.2 mg/mL (≈ 52 to 96.8 mM)
- solubility at 24 h ([3]; organic solvent or mixture, Acetonitrile, room temperature, read-out: Solubility): 57.6 mg/mL (≈ 150 mM)
- solubility at 24 h ([3]; organic solvent or mixture, Dimethyl sulfoxide, room temperature, read-out: Solubility): 66.7 mg/mL (≈ 174 mM)
- solubility at 24 h ([3]; organic solvent or mixture, Dimethylacetamide, room temperature, read-out: Solubility): 278 mg/mL (≈ 724 mM)
- solubility at 24 h ([3]; organic solvent or mixture, Dimethylformamide, room temperature, read-out: Solubility): 215 mg/mL (≈ 560 mM)
- solubility at 24 h ([3]; organic solvent or mixture, Ethanol, room temperature, read-out: Solubility): 18.2 mg/mL (≈ 47.3 mM)
- solubility at 24 h ([3]; organic solvent or mixture, Glycerin, room temperature, read-out: Solubility): 1.3 mg/mL (≈ 3.38 mM)
- solubility at 24 h ([3]; organic solvent or mixture, Isopropyl alcohol, room temperature, read-out: Solubility): 15.4 mg/mL (≈ 40.1 mM)
Compound: COc1ccc2c(c1)-c1nc(SCC(F)(F)F)n(C)c(=O)c1C(C)(C)C2 [CCG-211790, 9-Methoxy-3,5,5-trimethyl-2-((2,2,2-trifluoroethyl)thio)-5,6-dihydrobenzo[h]quinazolin-4(3H)-one]
- Inhibition of biofilm formation (vs treated with DMSO %) ([1]; 0.39 µM): 3.94% and -13.46% and 12.53% and 16.63% and 8.53% and 4.38% and 18.40% and 26.22% and 15.26%
- Inhibition of biofilm formation (vs treated with DMSO %) ([1]; 0.78 µM): 8.82% and 2.09% and 10.90% and 24.07% and 16.41% and 12.91% and 26.42% and 26.03% and 21.14%
- Inhibition of biofilm formation (vs treated with DMSO %) ([1]; 1.56 µM): 29.00% and 47.10% and 40.37% and 45.73% and 49.67% and 47.05% and 51.47% and 53.42% and 52.45%
- Inhibition of biofilm formation (vs treated with DMSO %) ([1]; 3.13 µM): 41.76% and 55.22% and 48.72% and 60.18% and 56.46% and 59.74% and 54.01% and 55.58% and 57.14%
- Inhibition of biofilm formation (vs treated with DMSO %) ([1]; 6.25 µM): 62.41% and 64.27% and 61.48% and 70.02% and 63.24% and 70.24% and 69.08% and 70.25% and 66.93%
- Inhibition of biofilm formation (vs treated with DMSO %) ([1]; 12.50 µM): 65.20% and 63.57% and 64.97% and 75.93% and 70.24% and 70.02% and 75.73% and 75.34% and 73.19%
- Inhibition of biofilm formation (vs treated with DMSO %) ([1]; 25.00 µM): 70.30% and 69.84% and 74.25% and 79.43% and 78.99% and 75.05% and 76.52% and 81.02% and 80.63%
- Inhibition of biofilm formation (vs treated with DMSO %) ([1]; 50.00 µM): 79.58% and 79.12% and 79.35% and 82.49% and 82.28% (2×) and 80.23% and 79.06% and 83.76%
